Several values for one entry are separate records, joined by “and”; a condition that tells them apart may be missing. Identical values can stand only once. Like-named read-outs stand apart in the source and are kept apart here. Values belong to the compound of their own block, whether it stands above or below them.
How the values were obtained:
[1] = mean population model parameter; cited from earlier work
[2] = paracetamol alone vs with semaglutide; cited from earlier work
[3] = immediate release tablets, cited from earlier work
[4] = final model with semaglutide covariate
[5] = model without semaglutide covariate
[6] = semaglutide 1.0 mg s.c. once weekly at steady state
[7] = young adults, body weight 62–84 kg

T50 estimate (atorvastatin with semaglutide): 83 min
T50 (atorvastatin with semaglutide (Figure 8)): 1.38 h
T50 estimate (atorvastatin without semaglutide): 16 min
ka (Placebo), Bootstrap mean [95%CI] (bootstrap 1000 replicates): 6.56 [3.29–12.1] h^−1
ktr (Placebo), Bootstrap mean [95%CI] (bootstrap 1000 replicates): 10.4 [4.48–44.0] h^−1
Θkacovariate, Bootstrap mean [95%CI] (bootstrap 1000 replicates): 0.821 [0.649–0.925]
Θktrcovariate, Bootstrap mean [95%CI] (bootstrap 1000 replicates): 0.820 [0.629–0.972]
ω^2 Ka, Bootstrap mean [95%CI] (bootstrap 1000 replicates): 2.21 [1.41–3.32]
ω^2 Ktr, Bootstrap mean [95%CI] (bootstrap 1000 replicates): 1.82 [0.390–3.17]
Between subject variability ω^2 Ka, Estimates [4]: 2.03
Between subject variability ω^2 Ktr, Estimates [4]: 1.82
Θkacovariate, Estimates (fractional reduction of ka with semaglutide (dKadplacebo)): 0.829
Θktrcovariate, Estimates (fractional reduction of ktr with semaglutide (dKtrdplacebo)): 0.791
BSV variance (Omega^2) for ka before semaglutide covariate [5]: 3.29
BSV variance (Omega^2) for ktr before semaglutide covariate [5]: 3.19
ka when co-administered with semaglutide [6]: 0.986 h⁻¹
ktr when co-administered with semaglutide [6]: 1.52 h⁻¹
ktr (Placebo), Estimates (transit compartment rate constant, without semaglutide): 7.3 h⁻¹ and 7.28 h⁻¹
decrease of ka when co-administered with semaglutide (with vs without semaglutide): 83%
decrease of ktr when co-administered with semaglutide (with vs without semaglutide): 79%
Structure (SMILES): CC(C)c1c(C(=O)Nc2ccccc2)c(-c2ccccc2)c(-c2ccc(F)cc2)n1CC[C@@H](O)C[C@@H](O)CC(=O)O [atorvastatin]
ka [1]: 3.5 h^‐1

Structure (SMILES): CC(=O)Nc1ccc(O)cc1 [paracetamol]
alteration in paracetamol AUC0‐5h [2]: no significant alteration
ka [3]: 4.33 h⁻¹
V1/F [3, 7]: 30.7 L
V2/F [3, 7]: 19.9 L

Source: publication PMC9263537 (Pharmacology Research & Perspectives, 2022)
